{
  "source": "patent US20070272777A1",
  "about": "(priority 2005, published 2007)",
  "key": {"[1]": {"conditions": "disclosed in WO 05/058835; cited from earlier work"}, "[2]": {"source_text": "FIG. 6B illustrates this method. […] The standard may be prepared by mixing specific amounts of Type C and Form II and determining the X-ray diffraction pattern. This method is also illustrated in FIGS. 6A and B which are used to calculate the ratio between the heights of the peaks in the known mixtures. […] A round aluminum sample holder with zero background was used. […] Running in spin/oscillate mode. All peak positions are reported with an error of ±0.2 degrees two theta."}, "[3]": {"molecular_target": "T1, serotonin 5-HT1A receptor (Homo sapiens, UniProt P08908)", "T1 sequence (P08908 1-422)": "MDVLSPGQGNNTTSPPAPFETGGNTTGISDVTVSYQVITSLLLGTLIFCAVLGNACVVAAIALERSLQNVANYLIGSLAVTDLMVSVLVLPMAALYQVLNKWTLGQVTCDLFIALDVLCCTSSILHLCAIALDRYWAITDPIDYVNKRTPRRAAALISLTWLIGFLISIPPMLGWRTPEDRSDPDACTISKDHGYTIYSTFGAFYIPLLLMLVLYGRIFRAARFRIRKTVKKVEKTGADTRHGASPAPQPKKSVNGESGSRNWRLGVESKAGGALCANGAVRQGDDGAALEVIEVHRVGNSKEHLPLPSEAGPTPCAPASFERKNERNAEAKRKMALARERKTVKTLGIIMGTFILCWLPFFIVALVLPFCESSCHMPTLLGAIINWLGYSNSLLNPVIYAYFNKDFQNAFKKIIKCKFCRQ", "conditions": "cited from earlier work"}, "[4]": {"tested_on": "α1-adrenergic receptor", "conditions": "cited from earlier work"}, "[5]": {"molecular_target": "T2, serotonin 5-HT2C receptor (Homo sapiens, UniProt P28335)", "T2 sequence (P28335 33-458)": "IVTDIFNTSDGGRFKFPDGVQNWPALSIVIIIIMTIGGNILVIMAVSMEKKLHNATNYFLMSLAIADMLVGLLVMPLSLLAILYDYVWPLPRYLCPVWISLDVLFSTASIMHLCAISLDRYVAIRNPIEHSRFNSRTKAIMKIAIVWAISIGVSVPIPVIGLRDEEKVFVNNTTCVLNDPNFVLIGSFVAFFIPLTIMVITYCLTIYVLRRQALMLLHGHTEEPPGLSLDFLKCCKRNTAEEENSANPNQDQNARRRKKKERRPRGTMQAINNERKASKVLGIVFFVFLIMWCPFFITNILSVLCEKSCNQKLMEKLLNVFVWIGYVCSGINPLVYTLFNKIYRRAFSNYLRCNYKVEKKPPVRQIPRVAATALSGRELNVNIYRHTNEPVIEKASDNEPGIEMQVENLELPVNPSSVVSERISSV", "conditions": "cited from earlier work"}, "[6]": {"molecular_target": "serotonin 5-HT2A receptor (Homo sapiens, UniProt P28223)", "sequence (P28223 whole entry)": "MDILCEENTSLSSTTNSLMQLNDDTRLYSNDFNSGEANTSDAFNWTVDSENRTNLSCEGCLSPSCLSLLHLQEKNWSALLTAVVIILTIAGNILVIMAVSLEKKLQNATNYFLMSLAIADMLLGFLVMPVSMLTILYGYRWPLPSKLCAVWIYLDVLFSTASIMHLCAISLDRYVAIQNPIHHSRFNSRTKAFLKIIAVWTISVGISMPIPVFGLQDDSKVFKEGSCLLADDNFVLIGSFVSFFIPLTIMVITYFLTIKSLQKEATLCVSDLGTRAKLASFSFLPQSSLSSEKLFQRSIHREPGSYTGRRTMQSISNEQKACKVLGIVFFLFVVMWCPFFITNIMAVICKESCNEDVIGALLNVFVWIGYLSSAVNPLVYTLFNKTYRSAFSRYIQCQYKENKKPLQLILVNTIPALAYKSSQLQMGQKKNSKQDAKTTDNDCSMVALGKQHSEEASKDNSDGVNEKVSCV", "conditions": "cited from earlier work"}, "[7]": {"molecular_target": "histamine H1 receptor (Homo sapiens, UniProt P35367)", "sequence (P35367 whole entry)": "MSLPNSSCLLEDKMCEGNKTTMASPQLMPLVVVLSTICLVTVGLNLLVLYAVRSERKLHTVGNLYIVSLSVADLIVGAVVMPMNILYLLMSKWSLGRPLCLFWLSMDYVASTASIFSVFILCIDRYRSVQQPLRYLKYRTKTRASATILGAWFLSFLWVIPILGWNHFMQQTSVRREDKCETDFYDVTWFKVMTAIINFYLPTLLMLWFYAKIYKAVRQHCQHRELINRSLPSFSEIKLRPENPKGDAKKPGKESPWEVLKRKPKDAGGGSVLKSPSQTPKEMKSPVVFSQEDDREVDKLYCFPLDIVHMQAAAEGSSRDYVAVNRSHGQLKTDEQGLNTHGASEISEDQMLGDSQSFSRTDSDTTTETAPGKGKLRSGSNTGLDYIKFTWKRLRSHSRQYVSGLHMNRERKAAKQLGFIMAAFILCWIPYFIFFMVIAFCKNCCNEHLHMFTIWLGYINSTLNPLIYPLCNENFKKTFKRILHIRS", "conditions": "cited from earlier work"}, "[8]": {"tested_on": "cholinergic muscarinic receptors", "conditions": "cited from earlier work"}, "[9]": {"molecular_target": "serotonin reuptake site (Homo sapiens, UniProt P31645)", "sequence (P31645 whole entry)": "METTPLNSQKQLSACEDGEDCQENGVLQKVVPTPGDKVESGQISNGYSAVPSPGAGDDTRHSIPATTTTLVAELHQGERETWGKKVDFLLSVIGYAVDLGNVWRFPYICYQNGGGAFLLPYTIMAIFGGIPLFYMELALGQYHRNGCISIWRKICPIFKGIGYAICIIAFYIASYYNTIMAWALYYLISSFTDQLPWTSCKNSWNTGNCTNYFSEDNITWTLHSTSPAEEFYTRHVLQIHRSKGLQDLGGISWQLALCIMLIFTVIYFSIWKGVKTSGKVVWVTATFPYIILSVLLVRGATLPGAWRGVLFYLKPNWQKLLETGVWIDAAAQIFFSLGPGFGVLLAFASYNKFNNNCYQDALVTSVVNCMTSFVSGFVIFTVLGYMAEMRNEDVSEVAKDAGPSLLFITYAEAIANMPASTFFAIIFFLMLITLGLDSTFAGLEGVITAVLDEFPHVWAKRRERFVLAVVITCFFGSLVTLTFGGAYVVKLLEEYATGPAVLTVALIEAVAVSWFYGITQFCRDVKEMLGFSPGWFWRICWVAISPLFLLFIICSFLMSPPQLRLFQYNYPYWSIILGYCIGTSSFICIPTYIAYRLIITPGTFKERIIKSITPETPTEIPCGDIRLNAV", "conditions": "cited from earlier work"}, "[10]": {"conditions": "prepared by recrystallization from ethanol or heating hydrate at 80° C; according to WO 03/26659; cited from earlier work"}, "[11]": {"conditions": "Example 5 (comparative): centrifugal ball mill, 90 minutes at 580 rpm"}},
  "note": "Where two headings read alike, the source gives them in different places.",
  "data": [
    {"smiles": "O=C1CCc2ccc(OCCCCN3CCN(c4cccc(Cl)c4Cl)CC3)cc2N1", "note": "[Aripiprazole Form II, 7-{4-[4-(2,3-dichlorophenyl)-1-piperazinyl]-butoxy}-3,4-dihydro-2(1H)-quinolinone]", "values": [
      {"measurement": "polymorphic transformation on heating", "setting": "[1]", "result": "transformation to Type C"},
      {"measurement": "Type C content of milled sample by XRD", "setting": "[2]; Example 1A: conical mill, 470 micron screen, 4710 rpm", "result": "less than 5%"},
      {"measurement": "Type C content of milled sample by XRD", "setting": "[2]; Example 1B: conical mill, 830 microns screen, 1315 rpm", "result": "less than 5 % by weight"},
      {"measurement": "Type C content of milled sample by XRD", "setting": "[2]; Example 2: ground with mortar and pestle about 1 min", "result": "less than 5%"},
      {"measurement": "Type C content of milled sample by XRD", "setting": "[2]; Example 3A: micronizer, Feeding Air 5.0 bars, Grinding Air 4.0 bars", "result": "did not contain Type_C"},
      {"measurement": "Type C content of milled sample by XRD", "setting": "[2]; Example 3B: micronizer, Feeding Air 3.0 bars, Grinding Air 2.0 bars", "result": "did not contain Type_C"},
      {"measurement": "Type C content of milled sample by XRD", "setting": "[2]; Example 3C: micronizer, 4 kg, Feeding Air 6.0 bars, Grinding Air 5.0 bars", "result": "did not contain Type_C"},
      {"measurement": "transformation to Type C by XRD", "setting": "[2]; Example 4A and 4B: frozen at −10° C. to −20° C. 24 hours, conical mill 470 microns/4710 or 830 microns/1315 rpm", "result": "not transformed to Type C"},
      {"measurement": "Type C content after milling by XRD", "setting": "[2]; [11]", "result": "stark increase in the content of Type C"},
      {"measurement": "crystallinity after milling by XRD", "setting": "[2]; [11]", "result": "crystallinity of the sample decreased"}
    ]},
    {"smiles": "O=C1CCc2ccc(OCCCCN3CCN(c4cccc(Cl)c4Cl)CC3)cc2N1", "note": "[Aripiprazole, 7-{4-[4-(2,3-dichlorophenyl)-1-piperazinyl]-butoxy}-3,4-dihydro-2(1H)-quinolinone]", "values": [
      {"measurement": "affinity for serotonin 5-HT1A receptor", "setting": "[3]", "result": "high affinity"},
      {"measurement": "affinity for α1-adrenergic receptor", "setting": "[4]", "result": "moderate affinity"},
      {"measurement": "affinity for serotonin 5-HT2C receptor", "setting": "[5]", "result": "moderate affinity"},
      {"measurement": "affinity for serotonin 5-HT2A receptor", "setting": "[6]", "result": "high affinity"},
      {"measurement": "affinity for histamine H1 receptor", "setting": "[7]", "result": "moderate affinity"},
      {"measurement": "affinity for cholinergic muscarinic receptors", "setting": "[8]", "result": "no appreciable affinity"},
      {"measurement": "affinity for the serotonin reuptake site", "setting": "[9]", "result": "moderate affinity"}
    ]},
    {"smiles": "O=C1CCc2ccc(OCCCCN3CCN(c4cccc(Cl)c4Cl)CC3)cc2N1", "note": "[anhydride aripiprazole]", "values": [
      {"measurement": "hygroscopicity", "setting": "[10]", "result": "significantly hygroscopic"}
    ]}
  ]
}
